How the values were obtained:
[1] = Pharmacokinetic analysis of granisetron and olanzapine formulation in canines (plasma concentration by LC/MS/MS); assay type: in vivo; conditions: both sexes, dog, dogs, same formulation, approx. 5 mg granisetron, read-out: Average Plasma Concentrations of Granisetron
Protocol: Plasma samples were taken from each dog at the following time points: 0, 0.5, 1, 3, 6, 8, 24, 48, 72, 96, 120 hours, and frozen.

[2] = cited from earlier work

| SMILES | concentration at 0.5 h ([1]; 0.5 hrs) | concentration at 1 h ([1]; 1 hr) | concentration at 3 h ([1]; 3 hrs) | concentration at 6 h ([1]; 6 hrs) | concentration at 8 h ([1]; 8 hrs) | concentration at 24 h ([1]; 24 hrs) | concentration at 48 h ([1]; 48 hrs) | concentration at 72 h ([1]; 72 hrs) | concentration at 96 h ([1]; 96 hrs) | concentration at 120 h ([1]; 120 hrs) | Solubility in water [2] |
| --- | --- | --- | --- | --- | --- | --- | --- | --- | --- | --- | --- |
| CN1C2CCCC1CC(NC(=O)c1nn(C)c3ccccc13)C2 (centres unmarked) [Granisetron, granisetron] | 11.7 ng/mL | 14.3 ng/mL | 14.2 ng/mL | 10.7 ng/mL | 8.02 ng/mL | 6.82 ng/mL | 3.27 ng/mL | 1.54 ng/mL | 0.95 ng/mL | 0.4 ng/mL | – |
| Cc1cc2c(s1)Nc1ccccc1N=C2N1CCN(C)CC1 [Olanzapine, 2-methyl-10-(4-methyl-1-piperazinyl)-4H-thieno[2,3-b][1,5]benzodiazepine] | – | – | – | – | – | – | – | – | – | – | practically insoluble |

— patent publication US20200061035A1 (Heron Therapeutics, Inc., priority 2016, published 2020)
